From PubChem BioAssay AID434987 (Southern Research Specialized Biocontainment Screening …, 2010) come the findings set out here.

Calls of active or inactive are those of the source. The rule behind the calls is not given here.

In the assay the test system is M. tuberculosis H37Rv growth inhibition with meropenem. Kind of assay: dose response, H37Rv, with and without meropenem (AID 434987).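 Note: growth over 7 days at 37 °C before Alamar Blue read on day 9.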
Where [1] appears, read: M. tuberculosis H37Rv growth inhibition, measured here: IC50 without meropenem.
Setting [2] is: M. tuberculosis H37Rv growth inhibition, measured here: IC90 without meropenem.
[3] abbreviates: measured here: IC90 with meropenem.

One may read the IC50 as the concentration that gives 50% inhibition. What is called IC90 is the point of the concentration-response curve where the effect stands at 90%. A low value points to an effect from little substance. Regarding `Cc1ccc(C)c(NC(=O)c2cc(-c3cccnc3)nc3ccccc23)c1`, the IC50 was > 100 µM (inactive). Further, the IC50 under setting [1] was above 100 µM. This compound also yielded an IC90 under setting [2] above 100 µM. Under setting [3], this compound came in with an IC90 above 100 µM.
As to `Cc1nc(S/C(=C\c2ccc(OCc3ccccc3Cl)cc2)C(=O)O)n[nH]1`, the IC50 is > 100 µM (inactive). For the same compound, the IC50 under setting [1] was above 100 µM. For the same compound, under setting [2], the IC90 is above 100 µM. Under setting [3], this compound registered an IC90 above 100 µM.
Take `O=C(Cn1c(=O)c2cccn2c2ccccc21)NCCc1ccc(Cl)cc1`: the IC50 was > 100 µM (inactive). For the same compound, the IC50 under setting [1] was above 100 µM. The IC90 under setting [2] was above 100 µM. Under setting [3], this compound gave an IC90 above 100 µM.
`O=C(COc1ccccc1)Nc1cc(C(F)(F)F)ccc1N1CCCC1`: the IC50 is 46.6 µM (inactive). The compound also had an IC50 under setting [1] above 100 µM. This compound also registered an IC90 under setting [2] above 100 µM. Also, the IC90 under setting [3] is above 100 µM.
Regarding `COc1cc(C(F)(F)F)nc2ccc(C#CCOC(=O)Nc3ccccc3)cc12`, the IC50 was > 100 µM (inactive). The compound further had an IC50 under setting [1] above 100 µM. Under setting [2], this compound yielded an IC90 above 100 µM. The compound also registered an IC90 under setting [3] above 100 µM.
Take `O=c1c2cc(Cl)ccc2[nH]c(=S)n1Cc1cccs1`: the concentration for half-maximal inhibition (IC50) is 5.72 µM. Under setting [1], this compound registered an IC50 of 20.4 µM. The same compound came in with an IC90 under setting [2] above 50 µM. For the same compound, the IC90 under setting [3] was 13.2 µM.
Regarding `CCOC(=O)Cc1nc2ccccc2[nH]1`, the IC50 is 15.3 µM. Under setting [1], this compound came in with an IC50 of 49.6 µM. Under setting [2], this compound registered an IC90 above 100 µM. The IC90 under setting [3] is above 100 µM.
As for `O=C(Nc1ccc2nc3n(c(=O)c2c1)CCCC3)c1cc([N+](=O)[O-])ccc1F`, the IC50 is 83.8 µM (inactive). In addition, the IC50 under setting [1] was 83.1 µM. Under setting [2], the IC90 was 90 µM. Under setting [3], this compound registered an IC90 of 91 µM.
Taken in the same sequence, the figures for `O=C(COC(=O)c1ccc([N+](=O)[O-])s1)NCc1ccc(F)cc1` were 37.9 µM (inactive), 56.6 µM, above 100 µM and above 100 µM.
Taken in the same sequence, the figures for `O=C(NCCC1=CCCCC1)NC1CCCCC1` were 17.8 µM, above 100 µM, above 100 µM and above 50 µM.
Taken in the same sequence, the figures for `CCOC(=O)c1nc(N2CCN(C(=O)OCC)CC2)c2c3c(sc2n1)CCCC3` were 39.5 µM (inactive), 60.6 µM, 96.6 µM and 40.9 µM.
Consider `CCN(CC)c1ccc(N=Cc2c(O)n(-c3ccc(Cl)cc3)c(=O)[nH]c2=O)cc1`, for which the IC50 is 20.9 µM. Besides, the IC50 under setting [1] was above 100 µM. This compound also registered an IC90 under setting [2] above 100 µM. Under setting [3], this compound returned an IC90 above 100 µM.
Turning to `O=C(CC(=O)c1ccccc1)Nc1ccc2c(c1)OCCO2`, the IC50 was 37.2 µM (inactive). Besides, the IC50 under setting [1] is 78.9 µM. Under setting [2], this compound gave an IC90 above 100 µM. Under setting [3], this compound had an IC90 above 100 µM.
On to `CCOC(=O)C1=C(N)OC(CCl)=C(C#N)C1c1ccsc1` (stereo unspecified), for which the IC50 was > 100 µM (inactive). Under setting [1], this compound showed an IC50 above 100 µM. Under setting [2], this compound registered an IC90 above 100 µM. For the same compound, the IC90 under setting [3] is above 100 µM.
As for `COCCCNCCOCCOc1ccc(C)cc1Br`, the IC50 is > 100 µM (inactive). Under setting [1], the IC50 was above 100 µM. For the same compound, the IC90 under setting [2] was above 100 µM. Under setting [3], this compound had an IC90 above 100 µM.
`O=C(NN1C(=O)C2C(C1=O)C1C=CC2C12CC2)c1ccncc1` (stereo unspecified): the IC50 was 12.3 µM. The same compound gave an IC50 under setting [1] of 55.9 µM. In addition, the IC90 under setting [2] was above 100 µM. Under setting [3], this compound showed an IC90 of 13.9 µM.
Taken in the same sequence, the figures for `COc1cc(/C=C/C(=O)OCC(=O)Nc2cc(C)c(C)cc2[N+](=O)[O-])ccc1O` were 43 µM (inactive), 92.8 µM, above 100 µM and above 100 µM.
Taken in the same sequence, the figures for `O=C(Cn1cnc2sc3c(c2c1=O)CCCC3)NCC(=O)Nc1ccccc1F` were 88.3 µM (inactive), above 100 µM, above 100 µM and 95.5 µM.
Taken in the same sequence, the figures for `Fc1ccc(NC(=S)NCc2cccs2)cc1` were > 100 µM (inactive), above 100 µM, above 100 µM and above 100 µM.
For `CC(=O)Nc1ccc(C(=O)N(C2=NC(C)CS2)c2ccc(Cl)cc2)cc1` (stereo unspecified), the IC50 is 29.8 µM (inactive). Under setting [1], this compound gave an IC50 of 44.1 µM. The compound also gave an IC90 under setting [2] above 100 µM. Moreover, the IC90 under setting [3] is above 100 µM.
Regarding `COc1ccc(OC)c(NC(=O)c2ccccc2SC)c1`, the IC50 is 19.8 µM. Further, the IC50 under setting [1] was determined as 83 µM. The compound further returned an IC90 under setting [2] above 100 µM. Further, the IC90 under setting [3] was above 100 µM.
Turning to `O=C(COn1nnc2ccc(Cl)cc21)NC12CC3CC(CC(C3)C1)C2`, the IC50 was > 100 µM (inactive). The IC50 under setting [1] was above 100 µM. The IC90 under setting [2] was above 100 µM. Under setting [3], this compound displayed an IC90 above 100 µM.
With `c1ccc(-c2n[nH]c3c2CCC3)cc1`, the IC50 was 3.73 µM. The IC50 under setting [1] was determined as 14.4 µM. In addition, the IC90 under setting [2] is 32.4 µM. Also, the IC90 under setting [3] came to 46.3 µM.
`CCC(=O)NC(=S)Nc1ccc(NC(=O)c2ccc(C)c([N+](=O)[O-])c2)cc1`: the IC50 is > 100 µM (inactive). The same compound displayed an IC50 under setting [1] above 100 µM. The compound further registered an IC90 under setting [2] above 100 µM. Under setting [3], the IC90 is above 100 µM.
On to `O=C(Nc1ccc(Cl)cc1Cl)C1=Cc2ccccc2OC1`, for which the IC50 is > 100 µM (inactive). Under setting [1], the IC50 is above 100 µM. This compound showed an IC90 under setting [2] above 100 µM. Under setting [3], this compound displayed an IC90 above 100 µM.
On to `CCCCC(=O)NC(=S)Nc1ccc(NC(=O)C(C)C)c(OC)c1`, for which the IC50 is 99.9 µM (inactive). This compound returned an IC50 under setting [1] above 100 µM. This compound gave an IC90 under setting [2] above 100 µM. The IC90 under setting [3] was above 100 µM.
As to `O=C(CN(Cc1ccco1)C(=O)c1cccc(Cl)c1)Nc1c(Cl)cc(Cl)cc1Cl`, the IC50 was 48.3 µM (inactive). The IC50 under setting [1] was above 100 µM. For the same compound, under setting [2], the IC90 is above 100 µM. Under setting [3], this compound had an IC90 above 100 µM.
Take `CC(C)Cn1c2c(c(O)c(C(=O)Nc3ccc(F)cc3)c1=O)CCCC2`: the IC50 is 82.2 µM (inactive). The same compound had a half-maximal inhibitory concentration (IC50) under setting [1] above 100 µM. The IC90 under setting [2] was above 100 µM. For the same compound, under setting [3], the IC90 is above 100 µM.
For `O=C(CNc1ccccc1Cl)Nc1cc(S(=O)(=O)N2CCOCC2)ccc1Cl`, the IC50 was > 100 µM (inactive). Moreover, the IC50 under setting [1] was above 100 µM. Also, the IC90 under setting [2] was above 100 µM. Also, under setting [3], the IC90 was above 100 µM.
As to `O=C1c2cccc3c(N4CCCCC4)ccc(c23)C(=O)N1c1ccccn1`, the IC50 is 84.8 µM (inactive). The compound further returned an IC50 under setting [1] above 100 µM. This compound also gave an IC90 under setting [2] above 100 µM. The same compound showed an IC90 under setting [3] above 100 µM.
For `O=C(CCSc1nnc(-c2ccncc2)o1)Nc1ccccc1Cl`, the IC50 was > 100 µM (inactive). For the same compound, under setting [1], the IC50 was above 100 µM. The compound further had an IC90 under setting [2] above 100 µM. Besides, the IC90 under setting [3] was above 100 µM.
For `C/C(=N\NC(=O)c1cc2c(s1)CCC(C)C2)c1cccnc1` (stereo unspecified), the IC50 is > 100 µM (inactive). The IC50 under setting [1] is above 100 µM. The compound also gave an IC90 under setting [2] above 100 µM. Also, the IC90 under setting [3] is above 100 µM.
On to `CCOC(=O)c1sc(Nc2nc3c(OC)cccc3s2)cc1C`, for which the IC50 was 98.6 µM (inactive). Besides, the IC50 under setting [1] stood at 89 µM. This compound also came in with an IC90 under setting [2] above 100 µM. In addition, the IC90 under setting [3] was above 100 µM.
Regarding `COCCOC(=O)c1c(C)oc2ccc(OC(=O)c3c(OC)cccc3OC)cc12`, the IC50 is > 100 µM (inactive). Also, the IC50 under setting [1] is above 100 µM. In addition, under setting [2], the IC90 was above 100 µM. Besides, under setting [3], the IC90 is above 100 µM.
With `C=CCN=c1scc(-c2ccc(F)cc2)n1/N=C/c1ccccn1`, the IC50 is 33 µM. The IC50 under setting [1] worked out at 92.8 µM. The same compound registered an IC90 under setting [2] above 100 µM. The compound also had an IC90 under setting [3] of 71.7 µM.
For `Cc1cc(C)c2c(N)c(S(=O)c3ccc(C(C)(C)C)cc3)sc2n1` (stereo unspecified) the same measures were > 100 µM (inactive), above 100 µM, above 100 µM and above 100 µM.
For `Cc1cccc(Nc2nnc(SCC(=O)Nc3ncc(C(F)(F)F)cc3Cl)s2)c1C` the same measures were 7.31 µM (inactive), 13.4 µM, above 100 µM and 21.5 µM.
As for `Cc1ccc(C)c(NC(=O)COC(=O)c2ccc(S(=O)(=O)N3CCCCC3)cc2)c1`, the IC50 is > 100 µM (inactive). Further, under setting [1], the IC50 was above 100 µM. Moreover, under setting [2], the IC90 is above 100 µM. For the same compound, under setting [3], the IC90 is above 100 µM.
For the compound `COc1ccc(-c2cc(C(N)=O)nc(N3CCCCCC3)n2)cc1`, the IC50 was 3.95 µM. The IC50 under setting [1] was above 100 µM. Under setting [2], this compound had an IC90 above 100 µM. This compound displayed an IC90 under setting [3] above 100 µM.
For `COc1ccccc1C(c1c(N)n(C)c(=O)n(C)c1=O)C(C)[N+](=O)[O-]` (stereo unspecified), the IC50 was 11.2 µM (inactive). Under setting [1], the IC50 was determined as 21.4 µM. This compound also gave an IC90 under setting [2] of 28.9 µM. Under setting [3], this compound had an IC90 of 18 µM.
For `O=C(CSc1nc2ncc(Cl)cc2[nH]1)Nc1cccc(F)c1` the same measures were > 100 µM (inactive), above 100 µM, above 100 µM and above 100 µM.
For `CCCCN(C)Cc1cc(=O)oc2cc3c(cc12)CCCC3`, the IC50 is 64.3 µM (inactive). Moreover, the IC50 under setting [1] is 80.1 µM. This compound also displayed an IC90 under setting [2] above 100 µM. Besides, under setting [3], the IC90 is 82.2 µM.
For `CCc1cc2c(Sc3nc4ccccc4s3)ncnc2s1` the same measures were 50.6 µM (inactive), 90.1 µM, above 100 µM and above 100 µM.
For `CCn1c2ccccc2c2cc(NC(=O)c3cccc(OC)c3OC)ccc21` the same measures were > 100 µM (inactive), above 100 µM, above 100 µM and above 100 µM.
